Like-named read-outs stand apart in the source and are kept apart here.
Columns and labels:
Type in all cases: cell-based, human
[1] = tested on: DLD-1 (colorectal adenocarcinoma); assay: Cytotoxicity/growth inhibition assay, DLD-1; details: read-out: IC50 (DLD-1)
Excerpt: (§1) The human cancer cell lines DLD-1 (colorectal adenocarcinoma), LNCap (prostate carcinoma), and OVCAR-3 (ovarian carcinoma) were obtained from the American Type Culture Collection, Manassas, Va., U.S.A., and HL-60 (promyeloid myelocytic leukemia), MX-1 (breast carcinoma), P388, and P388ADR from the National Cancer Institute, Bethesda, Md., U.S.A. Carboplatin, doxorubicin, and melphalan were obtained from Sigma-Aldrich Chemical Company, St. Louis, Mo., U.S.A. The CellTiter-Glo assay kit was obtained from Promega Corporation, Madison, Wis., U.S.A., and the Cellular DNA Cytometric Analysis Reagent Kit from Roche Diagnostics Corporation, Indianapolis, Ind., U.S.A. Lambda DNA was obtained from New England Biolabs, Beverly, Mass., U.S.A., and SYBR-Gold from Molecular Probes, Inc., Eugene, Oreg., U.S.A. The DNeasy Tissue Kit was obtained from Qiagen Inc., Valencia, Calif., U.S.A., and AmpliTaq Gold DNA polymerase and PCR reagents from Applied Biosystems, Foster City, Calif., U.S.A. All products were used in accordance with manufacturer's directions. All assays were conducted in triplicate wells, with dimethyl sulfoxide (DMSO) solvent control. The extent of cell growth was expressed as a percentage of the signal from the solvent control wells.
(§2) Log-phase cells were trypsinized, collected by centrifugation, and resuspended in a small volume of fresh medium, and the density of viable cells was determined following Trypan Blue staining. Cells were diluted in fresh media (3×10^3 cells/mL for MX-1, 3×10^3 cells/mL for DLD-1, and 6×10^3 cells/mL for LNCap cells), the test compounds (concentrations between 0.1 and 200 μM, dissolved in DMSO, 50 μL) added immediately after dilution to achieve a final DMSO concentration of 0.5%, then the suspensions added at 150 μL/well to 96-well plates, and incubated for several hours to allow attachment in the case of adherent cells. The cells were cultured for approximately three doubling times (3 days for MX-1 and 4 days for DLD-1 and LNCap). The cells were then collected by centrifugation, and 100 μL of the culture supernatant was replaced by the CellTiter-Glo reagent. After incubation for 15 minutes at room temperature, and the plate was read with a luminometer.

[2] = tested on: LNCap (prostate carcinoma); assay: Cytotoxicity/growth inhibition assay, LNCap; details: read-out: IC50 (LNCap)
Excerpt: as §1, §2

MX-1 (breast carcinoma) = assay: Cytotoxicity/growth inhibition assay, MX-1; details: read-out: IC50 (MX-1)
Excerpt: as §1, §2

[3] = DLD-1 cells, 4 days culture, CellTiter-Glo, 0.1-200 μM tested
[4] = LNCap cells, 4 days culture, CellTiter-Glo, 0.1-200 μM tested
[5] = MX-1 cells, 3 days culture, CellTiter-Glo, 0.1-200 μM tested

Row | SMILES | IC50 [1, 3] | IC50 [2, 4] | IC50 (MX-1 (breast carcinoma); [5]) | IC50 ([1]; Homo sapiens, DLD-1, 96 h) | IC50 ([2]; Homo sapiens, LNCaP, 96 h) | IC50 (MX-1 (breast carcinoma); Homo sapiens, MX1, 72 h)
1 | O=P(OCCS(=O)(=O)Cc1cccc[n+]1[O-])(N(CCCl)CCCl)N(CCCl)CCCl [Compound 182A] | 7.1 µM | 22.3 µM | 8 µM |  |  | 
2 | NC(=O)C1CCN(C(=O)c2ccc(CS(=O)(=O)CCOP(=O)(N(CCCl)CCCl)N(CCCl)CCCl)cc2)CC1 [Compound 170A] | 10.8 µM | ≥ 200 µM | 31.4 µM |  |  | 
3 | NCC(=O)Nc1cc(CS(=O)(=O)CCOP(=O)(N(CCCl)CCCl)N(CCCl)CCCl)cc(CS(=O)(=O)CCOP(=O)(N(CCCl)CCCl)N(CCCl)CCCl)c1 [Compound 19B] | 3.8 µM | 52 µM | 7.6 µM |  |  | 
4 | Cc1cnc(S(=O)(=O)CCOP(=O)(N(CCCl)CCCl)N(CCCl)CCCl)nc1 [Compound 123A] | 5.9 µM | 25.1 µM | 9 µM |  |  | 
5 | O=P(OCCS(=O)(=O)c1cccc(C(F)(F)F)c1)(N(CCCl)CCCl)N(CCCl)CCCl [Compound 116A] | 2.2 µM | 6.6 µM | 3.1 µM |  |  | 
6 | O=C(Nc1cc(CS(=O)(=O)CCOP(=O)(N(CCCl)CCCl)N(CCCl)CCCl)cc(CS(=O)(=O)CCOP(=O)(N(CCCl)CCCl)N(CCCl)CCCl)c1)c1cccnc1 [Compound 22B] | 2.5 µM | 40.8 µM | 7 µM |  |  | 
7 | O=P(OCCS(=O)(=O)c1ccccn1)(N(CCCl)CCCl)N(CCCl)CCCl [Compound 124A] | 6 µM | 15.5 µM | 7.2 µM |  |  | 
8 | CNC(=O)c1ccc(CS(=O)(=O)CCOP(=O)(N(CCCl)CCCl)N(CCCl)CCCl)cc1 [Compound 168A] | 5.7 µM | 24.2 µM | 7.9 µM |  |  | 
9 | CC(=O)NC(C(=O)O)C(C)(C)S(=O)(=O)CCOP(=O)(N(CCCl)CCCl)N(CCCl)CCCl (stereo not drawn) [Compound 74A] | 27.2 µM | ≥ 200 µM | 46.7 µM |  |  | 
10 | O=P(OCCS(=O)(=O)c1ccc(F)cc1)(N(CCCl)CCCl)N(CCCl)CCCl [Compound 111A] | 0.6 µM | 20.1 µM | 1.3 µM |  |  | 
11 | CCS(=O)(=O)CCOP(=O)(N(CCCl)CCCl)N(CCCl)CCCl [Compound 1A] | 9.1 µM | 57.1 µM | 16.9 µM |  |  | 
12 | N[C@@H](CS(=O)(=O)CCOP(=O)(N(CCCl)CCCl)N(CCCl)CCCl)C(=O)NCCC(=O)O [Compound 94A] | 37.5 µM | ≥ 200 µM | 22.8 µM |  |  | 
13 | O=C(NCc1ccccc1)c1ccc(CS(=O)(=O)CCOP(=O)(N(CCCl)CCCl)N(CCCl)CCCl)cc1 [Compound 161A] | 3.7 µM | 11.7 µM | 7.4 µM |  |  | 
14 | O=P(OCCS(=O)(=O)CCOP(=O)(N(CCCl)CCCl)N(CCCl)CCCl)(N(CCCl)CCCl)N(CCCl)CCCl [Compound 1C, di[2-[[bis[bis(2-chloroethyl)amino]phosphinyl]oxy]ethyl]sulfone] |  |  |  | 0.3 µM | 1.4 µM | 0.3 µM
15 | CC(C(C)S(=O)(=O)CCOP(=O)(N(CCCl)CCCl)N(CCCl)CCCl)S(=O)(=O)CCOP(=O)(N(CCCl)CCCl)N(CCCl)CCCl (stereo not drawn) [Compound 2B] | 0.3 µM | 10.9 µM | ≥ 200 µM |  |  | 
16 | N[C@@H](CCCNC(=O)CS(=O)(=O)CCOP(=O)(N(CCCl)CCCl)N(CCCl)CCCl)C(=O)O [Compound 32A] | 11.3 µM | 177 µM | 41.2 µM |  |  | 
17 | Nc1cc(CS(=O)(=O)CCOP(=O)(N(CCCl)CCCl)N(CCCl)CCCl)cc(CS(=O)(=O)CCOP(=O)(N(CCCl)CCCl)N(CCCl)CCCl)c1 [Compound 17B] | 4.6 µM | 18.6 µM | 6.2 µM |  |  | 
18 | O=C(O)CCC(=O)Nc1cc(CS(=O)(=O)CCOP(=O)(N(CCCl)CCCl)N(CCCl)CCCl)cc(CS(=O)(=O)CCOP(=O)(N(CCCl)CCCl)N(CCCl)CCCl)c1 [Compound 18B] | 2.7 µM | 49.8 µM | 8.4 µM |  |  | 
19 | O=P(OCCS(=O)(=O)c1ccccc1S(=O)(=O)CCOP(=O)(N(CCCl)CCCl)N(CCCl)CCCl)(N(CCCl)CCCl)N(CCCl)CCCl [Compound 10B] | 6.1 µM | 1.9 µM | 10.8 µM |  |  | 
20 | CCCS(=O)(=O)CCOP(=O)(N(CCCl)CCCl)N(CCCl)CCCl [Compound 3A] | 9.2 µM | 67.6 µM | 11.4 µM |  |  | 

Row | SMILES | IC50 [1, 3] | IC50 [2, 4] | IC50 (MX-1 (breast carcinoma); [5]) | IC50 ([1]; Homo sapiens, DLD-1, 96 h) | IC50 ([2]; Homo sapiens, LNCaP, 96 h) | IC50 (MX-1 (breast carcinoma); Homo sapiens, MX1, 72 h)
21 | O=C(O)CCS(=O)(=O)CCOP(=O)(N(CCCl)CCCl)N(CCCl)CCCl [Compound 29A] | 11.5 µM | 66.4 µM | 23 µM |  |  | 
22 | O=P(OCCS(=O)(=O)CCOCCOCCS(=O)(=O)CCOP(=O)(N(CCCl)CCCl)N(CCCl)CCCl)(N(CCCl)CCCl)N(CCCl)CCCl [Compound 9B] | 6.1 µM | 25.5 µM | 6 µM |  |  | 
23 | CC(C)NC(=O)[C@H](CS(=O)(=O)CCOP(=O)(N(CCCl)CCCl)N(CCCl)CCCl)NS(C)(=O)=O [Compound 97A] | 8.5 µM | 57.8 µM | 26.8 µM |  |  | 
24 | O=C(CS(=O)(=O)CCOP(=O)(N(CCCl)CCCl)N(CCCl)CCCl)Nc1ccccn1 [Compound 24A] | 5.5 µM | 12.1 µM | 11.2 µM |  |  | 
25 | Cc1cccc(CS(=O)(=O)CCOP(=O)(N(CCCl)CCCl)N(CCCl)CCCl)c1 [Compound 129A] | 5.4 µM | 16.3 µM | 7.1 µM |  |  | 
26 | N#Cc1ccc(S(=O)(=O)N[C@@H](CS(=O)(=O)CCOP(=O)(N(CCCl)CCCl)N(CCCl)CCCl)C(=O)N2CCN(C(=O)c3ccco3)CC2)cc1 [Compound 102A] | 9.2 µM | 81.6 µM | 19.9 µM |  |  | 
27 | CN(CC(=O)O)C(=O)CS(=O)(=O)CCOP(=O)(N(CCCl)CCCl)N(CCCl)CCCl [Compound 34A] | 12 µM | 97.2 µM | 9 µM |  |  | 
28 | O=P(OCCS(=O)(=O)CCO)(N(CCCl)CCCl)N(CCCl)CCCl [Compound 16A] | 9.6 µM | 36.4 µM | 13 µM |  |  | 
29 | CC(=O)NCCS(=O)(=O)CCOP(=O)(N(CCCl)CCCl)N(CCCl)CCCl [Compound 17A] | 4.2 µM | 13.9 µM | 6.3 µM |  |  | 
30 | O=P(OCCS(=O)(=O)Cc1ccc(Cl)cc1Cl)(N(CCCl)CCCl)N(CCCl)CCCl [Compound 135A] | 0.6 µM | 19.1 µM | 3.5 µM |  |  | 
31 | CC(C)NC(=O)[C@H](CS(=O)(=O)CCOP(=O)(N(CCCl)CCCl)N(CCCl)CCCl)NS(=O)(=O)c1ccccc1 [Compound 92A] | 7.3 µM | 36.1 µM | 14.7 µM |  |  | 
32 | Cn1ccnc1S(=O)(=O)CCOP(=O)(N(CCCl)CCCl)N(CCCl)CCCl [Compound 122A] | 3.1 µM | 23 µM | 4.3 µM |  |  | 
33 | O=C(O)c1ccc(CS(=O)(=O)CCOP(=O)(N(CCCl)CCCl)N(CCCl)CCCl)cc1 [Compound 139A] | 9.3 µM | 82.1 µM | 25.3 µM |  |  | 
34 | CC(C)CS(=O)(=O)CCOP(=O)(N(CCCl)CCCl)N(CCCl)CCCl [Compound 6A] | 6.8 µM | 17.7 µM | 4.6 µM |  |  | 
35 | CS(=O)(=O)N[C@@H](CS(=O)(=O)CCOP(=O)(N(CCCl)CCCl)N(CCCl)CCCl)C(=O)N1CCOCC1 [Compound 96A] | 9.6 µM | 81 µM | 30.2 µM |  |  | 
36 | O=C(Nc1cc(CS(=O)(=O)CCOP(=O)(N(CCCl)CCCl)N(CCCl)CCCl)cc(CS(=O)(=O)CCOP(=O)(N(CCCl)CCCl)N(CCCl)CCCl)c1)C1CCCNC1 (stereo not drawn) [Compound 21B] | 4.1 µM | 132 µM | 14.9 µM |  |  | 
37 | O=C(c1ccco1)N1CCN(C(=O)[C@H](CS(=O)(=O)CCOP(=O)(N(CCCl)CCCl)N(CCCl)CCCl)NS(=O)(=O)c2ccccc2)CC1 [Compound 93A] | 13.2 µM | 59.1 µM | 19.3 µM |  |  | 
38 | COC(=O)[C@H](CS(=O)(=O)CCOP(=O)(N(CCCl)CCCl)N(CCCl)CCCl)NS(=O)(=O)c1ccccc1 [Compound 80A] | 10.7 µM | 80.2 µM | 27.1 µM |  |  | 
39 | N[C@@H](CS(=O)(=O)CCOP(=O)(N(CCCl)CCCl)N(CCCl)CCCl)C(=O)NCCO [Compound 88A] | 9.5 µM | 126 µM | 17.9 µM |  |  | 
40 | O=[N+]([O-])c1cc(CS(=O)(=O)CCOP(=O)(N(CCCl)CCCl)N(CCCl)CCCl)cc(CS(=O)(=O)CCOP(=O)(N(CCCl)CCCl)N(CCCl)CCCl)c1 [Compound 16B] | 4.5 µM | 9.2 µM | 2.9 µM |  |  | 

From US8093231B2, “Sulfonylethyl phosphorodiamidates” (Telik, Inc., priority 2004, dated 2012)
